Read-outs that look alike come from different tables or passages of the source.
What was measured:
Assay type in all cases: cell-based
[1] = molecular target: T1, Toll-like receptor 4 (TLR4) (Homo sapiens, UniProt O00206); test: TLR4 activity: NF-κB-inducible SEAP reporter in LPS-stimulated TLR4-expressing HEK293 cells; settings: for inhibition at 10 µM: Test Con. 10 μM; for inhibition at 10 µM / inhibition at 100 µM / inhibition at 20 µM: LPS 10 ng/ml, 16-24 hours, HEK293 cells expressing TLR4, read-out: TLR-4 inhibition (%) mean; for activity towards TLR-4 (in words): summary of Table 1 (10, 20 or 100 μM); for inhibition at 100 µM: Test Con. 100 μM; for inhibition at 20 µM: Test Con. 20 μM
T1 construct: expressed in transfected cells; host or cells: HEK293 cells engineered to express TLR4
Method: Stimulation of the Toll-like receptor 4 (TLR4) was determined by assessing activation of the transcription factor NF-κB in HEK293 cells that were engineered to express TLR4. Assessment of TLR4 stimulation was based on the use of an NE-κB-inducible secreted alkaline phosphatase (SEAP) reporter system in which the SEAP reporter was under the control of a promoter inducible by NF-κB. Thus, the degree of activation of TLR4 can be indirectly quantified spectrophotometrically by measuring the amount of the SEAP reporter that is produced.
The TLR4-expressing cells were plated in HEK-Blue Detection (Invivogen, San Diego, Calif.) medium in a 96-well plate (25,000-50,000 cells/well). The cells were stimulated with lipopolysaccharides (LPS) alone or in combination with the compound of Example 1. Cell culture without LPS and the compound of Example 1 was defined as baseline control. To test whether the compound of Example 1 could block that activation of the TLR4, the cells were treated with the designated compound (10, 20 or 100 μM) and LPS (final conc. 10 ng/ml/well). After an incubation period (16-24 hours) at 37° C. in a CO2 incubator, the signals of individual samples in 96-well plates were detected at O.D.650 nm with a Molecular Devices SpectraMax i3 Imaging Cytometer. The TLR4 activity was expressed in percentage of LPS alone-stimulated cells minus baseline control.

RAW264.7 cells = test: Cell viability (MTT) of RAW264.7 cells; settings: for toxic activity toward RAW264.7 cells (in words): Table 2, 10 μM; for Cell Viability (%) mean: Test Con. 10 μM, MTT, RAW264.7 cells, percentage of viable LPS-stimulated cells
Method: (§1) RAW264.7 cells (1.6×10^5 cells/well) or HEK 293 cells (2.5-5.0×10^4 cells/well) were seeded in 96-well plate overnight and treated with different compounds for 16-24 hours. Cells' growth were determined by MTT-based colorimetric assays. Viability of the test cells treated with vehicle (0.5% DMSO) only was defined as 100% viable. Survival of cells after treatment with DETDs was calculated using the following formula: viable cell number (%)=OD570 (treated cell culture)/OD570 (vehicle control)×100.
(§2) The cell viability assay was performed by the MTT method, in which cells were incubated with 45 μl of 5 mg/ml MTT for 1 hour at 37° C., and 150 μl of DMSO was added at the end of culture to dissolve the crystals. The signals of individual samples in 96-well plates were detected at O.D.570 nm with a Molecular Devices SpectraMax i3 Imaging Cytometer. Cell viability was expressed in percentage of viable LPS-stimulated cells.

[2] = tested on: mTNF-α secretion from LPS-stimulated RAW264.7 monocytes; test: LPS induced mTNF-α release from RAW264.7 cells (ELISA); settings: Mus musculus
Method: To confirm whether the inhibitory effect of the selected compounds of example 2.1 (i.e., Compounds 12, 15, 19, 20, 22, 24, 28, 30, 32, 34, 36, 38, 40, 42, 44, 45, 49, 50, 52 and 70) translates to anti-inflammation, they were further tested to see if any of them may suppress mTNF-α secretion from lipopolysaccharide (LPS)-stimulated RAW264.7 monocytes.
To this purpose, RAW264.7 cells were seeded at 1.6×10^5 cells/well into 96-well culture plates. Test compounds (i.e., Compounds 12, 15, 19, 20, 22, 24, 28, 30, 32, 34, 36, 38, 40, 42, 44, 45, 49, 50, 52 and 70, respectively at 10 μM) were added into the culture plates in triplicate and co-cultured at 37° C. in 5% CO2 for 30 minutes. LPS (final conc. 10 ng/ml/well) was then added into the culture plates and the cells were incubated for another 4 hours. At the end of culture, the cultured media were harvested for mTNF-α quantification by ELISA with commercial assay kits (R&D Systems, Minneapolis, Minn.) following the manufacturer's protocol. Signals of the individual samples in 96-well plates were detected at O.D.450 nm/570 nm with a Molecular Devices SpectraMax i3 Imaging Cytometer. The mTNF-α activity was expressed in percentage of viable LPS-stimulated cells without test compound treatment.

HEK293 cells = test: Cell viability (MTT) of the TLR4-expressing HEK293 cells; settings: percentage of viable LPS-stimulated cells
Method: as §1
as §2, with “method. Cells” for “method, in which cells”

[3] = RAW264.7, Table 2, 10 μM, read-out: inhibition of LPS induced mTNF-α release from RAW264.7 cells
[4] = Test Con. 10 μM, LPS 10 ng/ml, 4 hours, RAW264.7 cells, read-out: mTNF-α inhibition (%) mean

T1 sequence (O00206 24-839, species assumed): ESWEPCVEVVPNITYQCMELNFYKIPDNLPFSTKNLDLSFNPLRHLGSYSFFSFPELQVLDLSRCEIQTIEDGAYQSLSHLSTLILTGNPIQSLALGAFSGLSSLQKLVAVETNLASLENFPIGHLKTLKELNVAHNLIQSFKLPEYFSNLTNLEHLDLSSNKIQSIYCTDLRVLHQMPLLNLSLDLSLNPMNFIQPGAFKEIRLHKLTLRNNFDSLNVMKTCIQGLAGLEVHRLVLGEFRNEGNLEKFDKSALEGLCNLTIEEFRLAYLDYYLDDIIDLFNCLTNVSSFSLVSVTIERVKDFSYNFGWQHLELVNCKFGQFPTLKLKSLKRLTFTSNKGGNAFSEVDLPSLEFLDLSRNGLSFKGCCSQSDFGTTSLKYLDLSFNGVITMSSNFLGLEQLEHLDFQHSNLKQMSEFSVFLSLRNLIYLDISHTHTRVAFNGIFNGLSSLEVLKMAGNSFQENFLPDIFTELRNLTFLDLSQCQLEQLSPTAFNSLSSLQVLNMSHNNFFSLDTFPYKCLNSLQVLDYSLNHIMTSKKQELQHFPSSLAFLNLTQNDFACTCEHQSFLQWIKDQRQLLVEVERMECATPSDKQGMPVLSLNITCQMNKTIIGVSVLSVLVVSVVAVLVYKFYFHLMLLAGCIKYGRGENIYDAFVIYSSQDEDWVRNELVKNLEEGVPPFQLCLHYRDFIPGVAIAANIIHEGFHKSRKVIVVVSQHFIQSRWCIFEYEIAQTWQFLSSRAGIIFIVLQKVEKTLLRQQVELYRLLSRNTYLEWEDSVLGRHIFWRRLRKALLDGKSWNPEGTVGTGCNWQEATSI
T1 sequence (Q9Y6Y9 17-160 partner limits assumed, species assumed): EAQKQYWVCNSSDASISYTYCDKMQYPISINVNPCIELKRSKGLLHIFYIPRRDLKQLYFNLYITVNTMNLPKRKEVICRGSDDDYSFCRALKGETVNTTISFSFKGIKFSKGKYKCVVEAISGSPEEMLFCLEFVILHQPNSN

Row | inhibition at 10 µM [1] [%] | activity towards TLR-4 (in words) [1] | inhibition at 100 µM [1] [%] | inhibition at 20 µM [1] [%] | Structure (SMILES) | toxic activity toward RAW264.7 cells (in words) (RAW264.7 cells) | Cell Viability (%) mean (RAW264.7 cells) [%] | inhibition at 10 µM [2, 3] [%] | inhibition at 10 µM [2, 4] [%] | Cell Viability (%) mean (HEK293 cells; Test Con. 10 μM) [%] | Cell Viability (%) mean (HEK293 cells; Test Con. 20 μM) [%]
1 | 63 | moderate inhibitory activity | – | – | C=CC(=O)N(c1ccc(F)cc1Cl)S(=O)(=O)c1ccccc1[N+](=O)[O-] [Compound 22] | negligible to no toxic activity | 96.4 | ~40 | 45.7 | 109.9 | –
2 | 100 | strong antagonist | – | – | C=CC(=O)N(c1ccc(F)cc1Cl)S(=O)(=O)N1CCOC1=O [Compound 38] | – | 48.0 | 85 to 100 | 97.1 | 61.6 | –
3 | 76.2 | moderate inhibitory activity | – | – | C=CC(=O)N(c1ccc(F)cc1Cl)S(=O)(=O)N1CCC[C@H]1C(=O)OC [Compound 49] | negligible to no toxic activity | 81.6 | 85 to 100 | 98.8 | 108.5 | –
4 | 94.8 | strong antagonist | – | – | C=CC(=O)N(c1ccc(F)cc1Cl)S(=O)(=O)c1ccc(F)cc1Cl [Compound 30] | negligible to no toxic activity | 99.7 | 85 to 100 | 82.9 | 94.0 | –
5 | 15.8 | mild or negligible activity | – | – | C=CC(=O)N1CCC[C@@H]1C(=O)Nc1ccc(F)cc1Cl [Compound 65] | – | – | – | – | 100.5 | –
6 | 100 | strong antagonist | – | – | C=CC(=O)N(c1ccc(F)cc1Cl)S(=O)(=O)c1ccccc1C(=O)OC [Compound 24] | – | 54.5 | 85 to 100 | 96 | 88.5 | –
7 | 100 | strong antagonist | – | – | C=CC(=O)N1CCCc2cccc(S(=O)(=O)Nc3ccc(F)cc3F)c21 [Compound 15] | – | 52.4 | 85 to 100 | 94.7 | 84.1 | –
8 | 65.6 | moderate inhibitory activity | – | – | C=C(C)C(=O)Nc1ccccc1S(=O)(=O)Nc1ccc(F)cc1Cl [Compound 45] | negligible to no toxic activity | 98.3 | ~40 | 41.1 | 100.7 | –
9 | 60.1 | moderate inhibitory activity | – | – | C=C(C)C(=O)N(c1ccc(F)cc1Cl)S(=O)(=O)c1ccccc1 [Compound 20] | negligible to no toxic activity | 100.0 | ~70 | 70.9 | 90.4 | –
10 | 67.3 | moderate inhibitory activity | – | – | C=CC(=O)N(c1ccc(F)cc1Cl)S(=O)(=O)Cc1ccccc1 [Compound 36] | negligible to no toxic activity | 102.8 | ~13 | 13 | 107.0 | –
11 | 100 | strong antagonist | – | – | C=CC(=O)N(c1ccc(F)cc1Cl)S(=O)(=O)c1c(C)oc(C)c1C(=O)OC [Compound 42] | – | 27.8 | 85 to 100 | 98.6 | 72.4 | –
12 | 100 | strong antagonist | – | – | C=CC(=O)N(c1ccc(F)cc1Cl)S(=O)(=O)N1CCCCC1C(=O)OC (centres unmarked) [Compound 52] | negligible to no toxic activity | 88.1 | 85 to 100 | 97.2 | 92.2 | –
13 | 3.7 | mild or negligible activity | – | – | C=CC(=O)N1CCC[C@H]1C(=O)Nc1ccc(F)cc1Cl [Compound 61] | – | – | – | – | 93.4 | –
14 | 98.9 | strong antagonist | – | – | C=CC(=O)N1CCCc2cccc(S(=O)(=O)Nc3ccc(F)cc3Cl)c21 [Compound 12] | – | 25.5 | 85 to 100 | 100 | 72 | –
15 | 100 | strong antagonist | – | – | C=CC(=O)N(c1ccc(F)cc1Cl)S(=O)(=O)c1ccccc1 [Compound 19] | – | 38.1 | 85 to 100 | 96.1 | 80 | –
16 | – | mild or negligible activity | 6.8 | – | COC(=O)C1=CCN(CC(=O)Nc2ccc(F)cc2)CC1 [Compound 3] | – | – | – | – | – | –
17 | – | mild or negligible activity | 17.8 | – | C=CC(=O)N1CCN(CC(=O)Nc2ccc(F)cc2)CC1 [Compound 6] | – | – | – | – | – | –
18 | 10.7 | mild or negligible activity | – | – | C=CC(=O)N(c1ccc(F)cc1Cl)S(=O)(=O)c1ccccc1OC(F)(F)F [Compound 26] | – | – | – | – | 86.8 | –
19 | – | mild or negligible activity | – | 18 | O=S(=O)(Nc1ccc(F)cc1Cl)c1cccc2c1N(S(=O)(=O)CCl)CCC2 [Compound 16] | – | – | – | – | – | 96.5
20 | 17.5 | mild or negligible activity | – | – | C=CC(=O)N1CCCC[C@H]1C(=O)N(C)c1ccc(F)cc1Cl [Compound 57] | – | – | – | – | 95.9 | –
21 | – | mild or negligible activity | – | 10.9 | C/C=C/C(=O)N1CCCc2cccc(S(=O)(=O)Nc3ccc(F)cc3Cl)c21 [Compound 13] | – | – | – | – | – | 86.6

— patent US20200247761A1, “SULFONAMIDE OR AMIDE COMPOUNDS, COMPOSITIONS AND METHODS FOR THE PROPHYLAXIS AND/OR TREATMENT OF AUTOIMMUNE, INFLAMMATION OR INFECTION RELATED DISORDERS” (TAIWANJ PHARMACEUTICALS CO., LTD, priority 2017, published 2020)
